For the assay, the target named is T1, human PAH with the R408W mutation (Homo sapiens, UniProt P00439, R408W).
T1 construct: expressed in transfected cells
T1 sequence (P00439 1-452 R408W): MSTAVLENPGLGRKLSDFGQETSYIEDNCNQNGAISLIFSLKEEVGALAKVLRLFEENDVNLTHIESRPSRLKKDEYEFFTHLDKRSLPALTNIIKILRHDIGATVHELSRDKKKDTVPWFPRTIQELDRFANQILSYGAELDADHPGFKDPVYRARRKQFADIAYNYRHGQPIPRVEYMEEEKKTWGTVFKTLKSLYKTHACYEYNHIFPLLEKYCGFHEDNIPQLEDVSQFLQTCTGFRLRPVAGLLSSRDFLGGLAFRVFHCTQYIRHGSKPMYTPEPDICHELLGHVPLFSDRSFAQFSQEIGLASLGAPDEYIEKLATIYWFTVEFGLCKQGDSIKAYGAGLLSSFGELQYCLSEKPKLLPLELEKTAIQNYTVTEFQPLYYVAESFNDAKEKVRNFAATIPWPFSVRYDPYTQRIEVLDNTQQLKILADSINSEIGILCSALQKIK
Briefly: Cell Based Phenylalanine Flux Assay.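 Further: Ten-point dose curve from 2-fold serial dilutions, run in duplicate at 0.5% DMSO final, tracer step used 20 µM sepiapterin and 800 µM labeled phenylalanine.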 Conditions: A375 cells expressing human R408W PAH; 24 hrs with compound, then sepiapterin and 13C9,15N-Phenylalanine for 4 hours; 13C-Tyrosine by LC-MS; average where tested multiple times; read-out: AC50.
For `Cc1nnc(C(=O)N2CCc3[nH]cnc3[C@H]2c2cc3c(C4CC4)cccn3n2)o1` [Example 2494, (S)-(4-(4-cyclopropylpyrazolo [1,5-a]pyridin-2-yl)-1,4,6,7-tetrahydro-5H-imidazo [4,5-c]pyridin-5-yl)(5-methyl-1,3,4-oxadiazol-2-yl)methanone], the AC50 (in general, the concentration at which the activity in the assay is half-maximal) lay in the range of 1000 to 5000 nM.

`CC(C)c1cccn2nc([C@@H]3c4nc[nH]c4CCN3c3nnc(-c4cccnn4)o3)cc12` [Example 2512, (S)-2-(4-(4-isopropylpyrazolo [1,5-a]pyridin-2-yl)-1,4,6,7-tetrahydro-5H-imidazo [4,5-c]pyridin-5-yl)-5-(pyridazin-3-yl)-1,3,4-oxadiazole]: the AC50 was in the range of 1000 to 5000 nM. The value for “(S)-(6-(methoxymethyl) pyrazolo[1,5-a]pyridin-3-yl)(4- (4-methylpyrazolo[1,5-a] pyridin-2-yl)-6,7-dihydro-1H- imidazo[4,5-c]pyridin- 5(4H)-yl)methanone [Example 1624]” was 500 to 1000 nM.

These data come from patent US12673961B2 (Agios Pharmaceuticals, Inc., priority 2022, dated 2026).
